Assay results taken from paper PMC8151276, “An Integrated Approach toward NanoBRET Tracers for Analysis of GPCR Ligand Engagement” (Molecules, 2021).

Assays:
NMUR2 = target: T1, NMUR2 (Homo sapiens, UniProt Q9GZQ4); experiment: NanoBRET screen HiBiT-NMUR2 in HEK293; assay type: binding
T1 construct: purchased Promega (in-house HiBiT-GPCR construct library, NanoBRET)
Method: (§1) Each tracer candidate was screened across the entire library of HiBiT-GPCR constructs using NanoBRET as the detection modality. As depicted in Figure 4A, the specificity of interactions was evaluated through decrease in BRET due to competitive displacement of a bound tracer by excess parental compound. Each tracer was analyzed for binding to each HiBiT-GPCR fusion in the absence and in the presence of competing parental compound. Briefly, HEK293 cells were transfected with HiBiT-GPCR constructs diluted into promoterless DNA to reduce expression and maximize translocation to the cell surface. Each tracer candidate was then screened at concentrations of 1 μM and 0.1 μM across cells expressing these fusions. Cells were treated for 1.5 h with tracer either alone or in the presence of 20 μM competing parental compound (i.e., control). BRET was measured upon addition of purified LgBiT and subsequent complementation with HiBiT genetically fused to a GPCR. The specificity of interactions was assessed through a decrease in BRET signal due to competitive displacement of the bound tracer. To further gauge the robustness of these interactions, the fold response over the control (i.e., BRETtracer/BRETcontrol) was calculated. We chose a 1.5-fold response, which translates to ≥7-fold signal over noise as the minimal threshold required to score an interaction as positive. […]. Below we highlight the screening results obtained for our exemplary fluorescent tracers based on Clozapine, Amitriptyline and AZD1283.
(§2) HiBiT-GPCR DNA constructs were diluted in 10 mM Tris pH 8 to a final concentration of 0.01 μg/μL, arrayed in 96-well plates and stored at −20 °C. For transfection, HEK293 cells were suspended in Opti-MEM (without phenol red) supplemented with 2% fetal bovine serum (Seradigm) and 100 units/mL penicillin–streptomycin (Gibco) at a final concentration of 220,000 cells/mL and dispensed into white 96-well plates at 90 μL/well. Subsequent transfections and screens were carried using an Agilent Bravo Automated Liquid Handling Platform. First, the 96-well HiBiT DNA arrays were diluted 25-fold in Opti-MEM (without serum or phenol red) to a final concentration of 0.0004 μg/μL and 20 μL of the diluted DNAs were transferred into new 96-well plates. Next, promoterless carrier DNA (1 μg/μL) was diluted 25-fold (0.04 μg/μL) and then dispensed into the diluted arrays at 20 μL/well. Following brief mixing, Viafect transfection reagent (Promega) diluted 16-fold into Opti-MEM was dispensed into the plates at 40 μL/well. After mixing by pipetting, plates were incubated for 10 min on the pipetting station deck. The DNA-transfection reagent complexes were then added to plates containing cells. To facilitate the screen, 10 μL of DNA-transfection reagent complexes were added in duplicates to the top 4 and bottom 4 rows, resulting in two identical 48-well arrays per plate. Plates with transfected cells were incubated for 18–20 h at 37 °C/5% CO2. A screen of each tracer across the entire library using two different concentrations requires duplicate plates of transfected cells. Depending on the number of tracers being screened, transfections can be scaled up using the same ratios. The next day, for each tracer, four 20× screening solutions in tracer dilution buffer (Promega) were prepared: two duplicates at final concentration of 20 μM and two duplicates at a final concentration of 2 μM. A competing unmodified compound was added to one of each duplicate at a final concentration of 400 μM. The four resulting solutions were diluted 4-fold in Opti-MEM without serum or phenol red to generate 5× solutions (5 µM and 0.5 µM tracer +/− 100 μM competing compound). To screen the library, a BioTek MultiFlo FX liquid dispenser was used to dispense 22.5 µL of tracer solution to the top 4 rows and 22.5 µL tracer + competing compound solution to the 4 bottom rows. Plates were briefly mixed on an orbital shaker and incubated for 1.5 h at room temperature. […]

P2RY14 = target: T2, P2RY14 (Homo sapiens, UniProt Q15391); experiment: NanoBRET screen HiBiT-P2RY14 in HEK293; assay type: binding
T2 construct: purchased Promega (in-house HiBiT-GPCR construct library, NanoBRET)
T2 sequence (Q15391 1-338): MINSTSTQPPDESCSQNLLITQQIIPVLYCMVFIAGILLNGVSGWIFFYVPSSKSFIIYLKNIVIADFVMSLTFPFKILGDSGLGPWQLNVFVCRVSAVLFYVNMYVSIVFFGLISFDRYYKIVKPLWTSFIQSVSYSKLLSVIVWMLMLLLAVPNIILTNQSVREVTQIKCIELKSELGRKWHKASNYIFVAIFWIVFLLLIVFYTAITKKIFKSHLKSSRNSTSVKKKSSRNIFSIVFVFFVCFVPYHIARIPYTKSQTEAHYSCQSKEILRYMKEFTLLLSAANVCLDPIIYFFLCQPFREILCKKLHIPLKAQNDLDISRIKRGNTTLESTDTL
Method: as §1, §2

[1] = tracer at 0.1μM, listed as amitriptyline-b-2-NB590
[2] = tracer at 1μM, listed as amitriptyline-b-2-NB590

T1 sequence (Q9GZQ4 whole entry): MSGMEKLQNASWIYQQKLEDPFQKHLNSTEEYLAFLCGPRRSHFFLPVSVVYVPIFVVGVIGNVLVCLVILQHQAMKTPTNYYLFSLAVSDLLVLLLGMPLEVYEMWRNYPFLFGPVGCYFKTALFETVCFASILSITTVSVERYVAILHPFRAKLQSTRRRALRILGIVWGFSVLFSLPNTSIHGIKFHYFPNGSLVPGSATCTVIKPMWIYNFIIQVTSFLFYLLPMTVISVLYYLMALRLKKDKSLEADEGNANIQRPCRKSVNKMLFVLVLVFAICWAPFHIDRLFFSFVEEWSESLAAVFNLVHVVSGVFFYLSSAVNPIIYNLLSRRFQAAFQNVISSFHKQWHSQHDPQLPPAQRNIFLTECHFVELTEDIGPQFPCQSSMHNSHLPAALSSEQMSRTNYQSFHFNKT

| Structure (SMILES) | NanoBRET Fold Response (NMUR2; NMUR2, tracer 0.1μM) | NanoBRET Fold Response (NMUR2; NMUR2, tracer 1μM) | NanoBRET Fold Response (P2RY14; P2RY14, tracer 0.1μM) | NanoBRET Fold Response (P2RY14; P2RY14, tracer 1μM) | other results |
| --- | --- | --- | --- | --- | --- |
| CCOC(=O)c1cc(C#N)c(N2CCC(C(=O)NS(=O)(=O)Cc3ccccc3/C=C/C(=O)NCCNC(=O)CCc3ccc4n3[B-](F)(F)[N+]3=C(c5ccc[nH]5)C=CC3=C4)CC2)nc1C [AZD1283-1-NB590] | – | – | – | – | NanoBRET Fold Response (NMUR2; NMUR2, 0.1μM): 1.01; NanoBRET Fold Response (NMUR2; NMUR2, 1μM): 0.86; NanoBRET Fold Response (P2RY14; P2RY14, 0.1μM): 1.14; NanoBRET Fold Response (P2RY14; P2RY14, 1μM): 1.18 |
| N#CN=C(NCCCOc1cccc(CN2CCCCC2)c1)NCCNC(=O)CCOCCOCCOCCOCCNC(=O)CCc1ccc2n1[B-](F)(F)[N+]1=C(c3ccc[nH]3)C=CC1=C2 [Aminopotentidine-2-NB590] | 1.02 | 1.05 | 0.98 | 0.91 | – |
| CN(C)CCC=C1c2ccccc2CCc2ccc(C(=O)NCCNC(=O)CCOCCOCCOCCOCCNC(=O)CCc3ccc4n3[B-](F)(F)[N+]3=C(c5ccc[nH]5)C=CC3=C4)cc21 [Amitriptyline-a-2-NB590] | – | – | – | – | NanoBRET Fold Response (NMUR2; tracer at 0.1μM): 1.00; NanoBRET Fold Response (NMUR2; tracer at 1μM): 1.02; NanoBRET Fold Response (P2RY14; tracer at 1μM): 1.09 |
| CN(C)CCC=C1c2ccccc2CCc2ccc(C(=O)NCCNC(=O)CCOCCOCCOCCOCCNC(=O)CCc3ccc4n3[B-](F)(F)[N+]3=C(c5ccc[nH]5)C=CC3=C4)cc21 [Amitriptyline-b-2-NB590] | – | – | – | – | NanoBRET Fold Response (NMUR2; [1]): 0.99; NanoBRET Fold Response (NMUR2; [2]): 1.00; NanoBRET Fold Response (P2RY14; [1]): 1.12; NanoBRET Fold Response (P2RY14; [2]): 0.77 |
| CN(CCC=C1c2ccccc2CCc2ccccc21)C(=O)CCOCCOCCOCCOCCNC(=O)CCc1ccc2n1[B-](F)(F)[N+]1=C(c3ccc[nH]3)C=CC1=C2 [Amitriptyline-e-2-NB590] | – | – | – | – | NanoBRET Fold Response (P2RY14; tracer at 1μM): 1.03 |
| COc1ccc2c(n1)c(CCNC(C)=O)cn2CCNC(=O)CCc1ccc2n1[B-](F)(F)[N+]1=C(c3ccc[nH]3)C=CC1=C2 [Azamelatonin-1-NB590] | – | – | – | – | NanoBRET Fold Response (NMUR2; 0.1μM tracer): 1.00; NanoBRET Fold Response (NMUR2; 1μM tracer): 1.16; NanoBRET Fold Response (P2RY14; 0.1μM tracer): 0.98; NanoBRET Fold Response (P2RY14; 1μM tracer): 0.98 |
| COc1ccc2[nH]c(-c3ccc(CNC(=O)CCOCCOCCOCCOCCNC(=O)CCc4ccc5n4[B-](F)(F)[N+]4=C(c6ccc[nH]6)C=CC4=C5)cc3)c(CCNC(C)=O)c2n1 [AzomelatoninICO9-2-NB590] | – | – | – | – | NanoBRET Fold Response (NMUR2; 0.1μM tracer): 0.71; NanoBRET Fold Response (NMUR2; 1μM tracer): 0.99; NanoBRET Fold Response (P2RY14; 0.1μM tracer): 1.21; NanoBRET Fold Response (P2RY14; 1μM tracer): 1.13 |
| O=C(CCOCCOCCOCCOCCNC(=O)CCc1ccc2n1[B-](F)(F)[N+]1=C(c3ccc[nH]3)C=CC1=C2)NCCCN1CCN(C2=Nc3cc(Cl)ccc3Nc3ccccc32)CC1 [Clozapine-a-2-NB590] | – | – | – | – | NanoBRET Fold Response (NMUR2; NMUR2, 0.1μM tracer): 0.93; NanoBRET Fold Response (NMUR2; NMUR2, 1μM tracer): 1.01; NanoBRET Fold Response (P2RY14; P2RY14, 0.1μM tracer): 1.07; NanoBRET Fold Response (P2RY14; P2RY14, 1μM tracer): 0.84 |
| CN1CCN(C2=Nc3cc(Cl)ccc3Nc3ccc(CNC(=O)CCOCCOCCOCCOCCNC(=O)CCc4ccc5n4[B-](F)(F)[N+]4=C(c6ccc[nH]6)C=CC4=C5)cc32)CC1 [Clozapine-b-2-NB590] | – | – | – | – | NanoBRET Fold Response (NMUR2; NMUR2, 0.1μM tracer): 0.97; NanoBRET Fold Response (NMUR2; NMUR2, 1μM tracer): 1.00; NanoBRET Fold Response (P2RY14; P2RY14, 0.1μM tracer): 1.01; NanoBRET Fold Response (P2RY14; P2RY14, 1μM tracer): 0.99 |
| CN1CCN(C2=Nc3cc(Cl)ccc3N(CC(=O)NCCOCCOCCOCCOCCNC(=O)CCc3ccc4n3[B-](F)(F)[N+]3=C(c5ccc[nH]5)C=CC3=C4)c3ccccc32)CC1 [Clozapine-c-2-NB590] | – | – | – | – | NanoBRET Fold Response (NMUR2; NMUR2, 0.1μM tracer): 1.12; NanoBRET Fold Response (NMUR2; NMUR2, 1μM tracer): 0.92; NanoBRET Fold Response (P2RY14; P2RY14, 0.1μM tracer): 0.96; NanoBRET Fold Response (P2RY14; P2RY14, 1μM tracer): 0.89 |
| O=C(CCOCCOCCOCCOCCNC(=O)CCc1ccc2n1[B-](F)(F)[N+]1=C(c3ccc[nH]3)C=CC1=C2)NCCCN1CCN(C2=Nc3ccccc3Oc3ccc(Cl)cc32)CC1 [Loxapine-a-2-NB590] | 1.07 | 0.74 | 0.94 | 0.98 | – |
| COc1ccccc1N1CCN(CCCCN2C(=O)c3ccc(CNC(=O)CCOCCOCCOCCOCCNC(=O)CCc4ccc5n4[B-](F)(F)[N+]4=C(c6ccc[nH]6)C=CC4=C5)cc3C2=O)CC1 [NAN-190-2-NB590] | – | – | 1.02 | – | – |
| COc1ccccc1N1CCN(CCCCN2C(=O)c3ccc(CNC(=O)CCOCCNC(=O)c4ccc(CNC(=O)CCc5ccc6n5[B-](F)(F)[N+]5=C(c7ccc[nH]7)C=CC5=C6)cc4)cc3C2=O)CC1 [NAN-190-3-NB590] | 1.04 | 0.75 | 0.95 | 1.06 | – |
| O=C(CCc1ccc2n1[B-](F)(F)[N+]1=C(c3ccc[nH]3)C=CC1=C2)NCc1ccc(C(=O)NCCOCCC(=O)N[C@@H]2CC[C@@]3(O)[C@H]4Cc5ccc(O)c6c5[C@@]3(CCN4CC3CC3)[C@H]2O6)cc1 [Naltrexone-3-NB590] | 0.78 | 0.84 | 0.95 | 1.00 | – |
| Cc1cc2c(s1)Nc1ccccc1N=C2N1CCN(CCCNC(=O)CCOCCOCCOCCOCCNC(=O)CCc2ccc3n2[B-](F)(F)[N+]2=C(c4ccc[nH]4)C=CC2=C3)CC1 [Olanzapine-a-2-NB590] | 0.94 | 0.98 | 1.05 | 1.00 | – |
| O=C(CCc1ccc2n1[B-](F)(F)[N+]1=C(c3ccc[nH]3)C=CC1=C2)NCc1ccc(C(=O)NCCOCCOCCNCC(O)COc2cccc3ccccc23)cc1 (stereo not shown) [Propranolol-3-NB590] | – | – | – | – | NanoBRET Fold Response (NMUR2; NMUR2, 0.1μM): 1.06; NanoBRET Fold Response (NMUR2; NMUR2, 1μM): 1.08; NanoBRET Fold Response (P2RY14; P2RY14, 0.1μM): 1.10; NanoBRET Fold Response (P2RY14; P2RY14, 1μM): 1.00 |
| O=C(CCc1ccc2n1[B-](F)(F)[N+]1=C(c3ccc[nH]3)C=CC1=C2)NCCOCCOCCNC(=O)OCCOCCN1CCN(C2=Nc3ccccc3Sc3ccccc32)CC1 [Quetiapine-a-2-NB590] | 1.02 | 0.82 | 0.96 | 0.93 | – |
| Cc1nc2n(c(=O)c1CCN1CCC(c3noc4cc(F)ccc34)CC1)CCCC2OC(=O)NCCOCCOCCOCCOCCNC(=O)CCc1ccc2n1[B-](F)(F)[N+]1=C(c3ccc[nH]3)C=CC1=C2 (stereo not shown) [Risperidone-2-NB590] | 1.09 | 1.05 | 1.02 | 0.93 | – |
| CC(C)N(CC[C@H](c1ccccc1)c1cc(CCNC(=O)CCOCCOCCOCCOCCNC(=O)CCc2ccc3n2[B-](F)(F)[N+]2=C(c4ccc[nH]4)C=CC2=C3)ccc1O)C(C)C [Tolterodine-2-NB590] | 1.31 | 1.07 | 0.93 | 1.08 | – |
| CC(C)N(CC[C@H](c1ccccc1)c1cc(CCNC(=O)c2ccc(CNC(=O)CCc3ccc4n3[B-](F)(F)[N+]3=C(c5ccc[nH]5)C=CC3=C4)cc2)ccc1O)C(C)C [Tolterodine-BZ-NB590] | 1.00 | 1.06 | 0.86 | 0.88 | – |
